Measured values: PMC7213754 (Clinical cancer research : an official journal of the …, 2009)
“And” between values parts separate entries of the source, which are not always exact repeats. Equal values may be shown once. “Also recorded” adds a separate entry of the source. Each block holds one compound with its values, some of them ahead of it.

Experiments:
[1] = target: T1, Pgp (Homo sapiens, UniProt P08183); assay: Rhodamine efflux from circulating CD56+ cells of patients
[2] = tested on: Pgp; conditions: cited from earlier work
[3] = target: T1, Pgp; assay: 99mTc-sestamibi scanning at baseline and after tariquidar; type: in vivo
[4] = target: T1, Pgp; conditions: 150 mg tariquidar; cited from earlier work
[5] = tested on: multidrug-resistant human tumor cell lines; conditions: in vitro; cited from earlier work
[6] = Tariquidar pharmacokinetics in patients; type: in vivo, human; conditions: for concentration at 24 h / concentration at 48 h: intravenous, mean plasma concentration
[7] = Vinorelbine pharmacokinetics in patients, alone and with tariquidar; type: in vivo, human; conditions: for effect of tariquidar on vinorelbine pharmacokinetics: tariquidar 150 mg before vinorelbine
[8] = cited from earlier work
[9] = cycle 2, 150 mg i.v. over 30 min, individual patients
[10] = vinorelbine after tariquidar (post), individual patients
[11] = vinorelbine after tariquidar, eight patients
[12] = vinorelbine alone (pre), individual patients
[13] = vinorelbine alone, eight patients

T1 sequence (P08183 whole entry): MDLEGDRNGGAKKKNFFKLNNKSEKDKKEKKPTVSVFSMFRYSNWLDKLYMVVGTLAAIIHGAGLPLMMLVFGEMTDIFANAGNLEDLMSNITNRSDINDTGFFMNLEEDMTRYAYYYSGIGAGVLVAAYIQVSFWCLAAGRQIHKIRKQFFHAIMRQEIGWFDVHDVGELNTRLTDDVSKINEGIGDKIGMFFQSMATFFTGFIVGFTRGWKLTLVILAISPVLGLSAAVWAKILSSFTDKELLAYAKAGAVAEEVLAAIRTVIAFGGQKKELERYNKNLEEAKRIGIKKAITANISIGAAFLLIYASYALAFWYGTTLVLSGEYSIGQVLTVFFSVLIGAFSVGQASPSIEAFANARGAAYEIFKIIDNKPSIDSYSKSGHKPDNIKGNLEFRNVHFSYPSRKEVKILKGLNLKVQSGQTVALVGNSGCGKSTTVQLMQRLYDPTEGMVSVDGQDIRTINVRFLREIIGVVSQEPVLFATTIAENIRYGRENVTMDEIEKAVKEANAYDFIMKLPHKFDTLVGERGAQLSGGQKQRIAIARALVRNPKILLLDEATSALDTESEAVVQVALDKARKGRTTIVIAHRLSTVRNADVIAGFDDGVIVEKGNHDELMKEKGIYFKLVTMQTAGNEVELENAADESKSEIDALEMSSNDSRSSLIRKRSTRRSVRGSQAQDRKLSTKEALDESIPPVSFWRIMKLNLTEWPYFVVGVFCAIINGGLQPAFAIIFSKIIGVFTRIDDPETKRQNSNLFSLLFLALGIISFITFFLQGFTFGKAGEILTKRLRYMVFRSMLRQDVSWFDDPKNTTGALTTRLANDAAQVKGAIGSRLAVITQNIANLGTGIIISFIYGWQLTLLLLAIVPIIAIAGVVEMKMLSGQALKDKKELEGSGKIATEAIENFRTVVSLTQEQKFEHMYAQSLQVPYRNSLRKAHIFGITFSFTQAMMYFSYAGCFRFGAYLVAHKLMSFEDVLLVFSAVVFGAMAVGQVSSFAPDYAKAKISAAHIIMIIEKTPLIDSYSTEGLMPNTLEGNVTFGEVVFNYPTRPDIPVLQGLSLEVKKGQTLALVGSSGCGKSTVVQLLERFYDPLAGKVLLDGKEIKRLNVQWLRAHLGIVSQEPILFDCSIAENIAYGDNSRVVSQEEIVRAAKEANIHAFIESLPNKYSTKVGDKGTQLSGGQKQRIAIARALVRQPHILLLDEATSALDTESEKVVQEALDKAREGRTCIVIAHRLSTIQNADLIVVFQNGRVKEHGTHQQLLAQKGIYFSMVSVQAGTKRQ

rhodamine efflux from CD56+ cells with exogenously added inhibitor ([1]; added exogenously to blood sample): completely blocked
SMILES: C/C=C/C[C@@H](C)C(=O)[C@H]1C(=O)N[C@@H](C(C)C)C(=O)N(C)CC(=O)N(C)[C@@H](CC(C)C)C(=O)N[C@@H](C(C)C)C(=O)N(C)[C@@H](CC(C)C)C(=O)N[C@@H](C)C(=O)N[C@H](C)C(=O)N(C)[C@@H](CC(C)C)C(=O)N(C)[C@@H](CC(C)C)C(=O)N(C)[C@@H](C(C)C)C(=O)N1C [PSC833, valspodar]

effect on liver 99mTc-sestamibi clearance ([3]; 150-mg dose): reduced liver 99mTc-sestamibi clearance
difference in drug exposure between 2 patients ([6]; 150 mg tariquidar): > 7 fold
concentration at 24 h ([6]; human, plasma, 150 mg, cycle 1): 119 ng/mL
concentration at 24 h ([6]; human, plasma, 150 mg, cycle 2): 121 ng/mL
concentration at 48 h ([6]; human, plasma, 150 mg, cycle 1): 79.4 ng/mL
concentration at 48 h ([6]; human, plasma, 150 mg, cycle 2): 69.5 ng/mL
Clearance ([6]; human, plasma, iv, 150 mg, Clearance, median, cycle 2, 150 mg i.v. over 30 min, 18 patients): 235 mL/min
Cmax ([6]; human, plasma, iv, 150 mg, Cmax, median, cycle 2, 150 mg i.v. over 30 min, 18 patients): 1220 ng/mL
Half-life ([6]; human, plasma, iv, 150 mg, Half-life, median, cycle 2, 150 mg i.v. over 30 min, 18 patients): 33 h
Vd ([6]; human, plasma, iv, 150 mg, Vdss, median, cycle 2, 150 mg i.v. over 30 min, 18 patients): 261 L
Clearance ([6]; human, plasma, iv, 150 mg, mean (±SD) clearance, 150 mg i.v.): 287 ± 196 mL/min
Half-life ([6]; human, plasma, iv, 150 mg, mean (±SD) terminal half-life, 150 mg i.v.): 33.6 ± 13.5 h
SMILES: COc1cc2c(cc1OC)CN(CCc1ccc(NC(=O)c3cc(OC)c(OC)cc3NC(=O)c3cnc4ccccc4c3)cc1)CC2 [tariquidar]
mode of inhibition of Pgp transport [2]: noncompetitive
transport substrate of Pgp [2]: not a transport substrate of Pgp
tolerability (in vivo): well-tolerated
difference in mean 99mTc-sestamibi AUC in heart, lungs and liver ([3]; baseline versus after tariquidar, all study patients): Large differences were noted in Pgp-expressing liver but not in the heart nor in the lungs
mean change of 99mTc-sestamibi accumulation and retention in the liver [4]: +128%
duration of action after removal of drug from the culture medium [5]: at least 22 hours
Clearance [6, 9]: 170 mL/min and 312 mL/min and 559 mL/min and 309 mL/min and 249 mL/min and 302 mL/min and 444 mL/min and 784 mL/min and 221 mL/min and 269 mL/min and 623 mL/min and 166 mL/min and 83 mL/min and 129 mL/min and 111 mL/min and 137 mL/min and 108 mL/min and 191 mL/min
Cmax [6, 9]: 1,551 ng/mL and 1,317 ng/mL and 963 ng/mL and 1,362 ng/mL and 1,102 ng/mL and 582 ng/mL and 1,168 ng/mL and 516 ng/mL and 912 ng/mL and 911 ng/mL and 622 ng/mL and 5,793 ng/mL and 3,632 ng/mL and 1,266 ng/mL and 6,113 ng/mL and 4,628 ng/mL and 2,207 ng/mL and 1,008 ng/mL
Half-life [6, 9]: 27.2 h and 33.2 h and 17.5 h and 25.5 h and 27.6 h and 43.8 h and 15.7 h and 14.2 h and 42.2 h and 23.8 h and 19.2 h and 32.9 h and 63.1 h and 44.4 h and 45.0 h and 50.6 h and 35.8 h
Vdss [6, 9]: 136 L and 343 L and 248 L and 206 L and 199 L and 661 L and 142 L and 348 L and 439 L and 553 L and 604 L and 82.3 L and 85.1 L and 447 L and 274 L and 234 L and 317 L and 247 L
Pgp block by i.v. tariquidar compared with exogenous PSC833 ([1]; 8, 24 and 48 h after 150 mg i.v.): as effective in blocking Pgp as an excess of PSC833 added exogenously
effect of tariquidar on vinorelbine pharmacokinetics [7]: no apparent effect of tariquidar on the disposition of vinorelbine; also recorded: did not affect the pharmacokinetics of vinorelbine
effect of tariquidar on vinorelbine pharmacokinetics ([7]; listed as Tariquidar): no effects on vinorelbine pharmacokinetics

SMILES: CCC1=C[C@@H]2CN(C1)Cc1c([nH]c3ccccc13)[C@@](C(=O)OC)(c1cc3c(cc1OC)N(C)[C@H]1[C@@](O)(C(=O)OC)[C@H](OC(C)=O)[C@]4(CC)C=CCN5CC[C@]31[C@@H]54)C2 [vinorelbine]
maximum tolerated dose of vinorelbine in the combination (days 1 and 8 every 21 d with tariquidar 150 mg, without filgrastim): 20 mg/m^2
effect of vinorelbine on tariquidar pharmacokinetics ([6]; human, in vivo): no effect on tariquidar pharmacokinetics
dose of vinorelbine felt to be tolerable with zosuquidar ([8]; i.v. weekly for 3 weeks every 28 days): 22.5 mg/m^2
Clearance Post [7, 10]: 518 mL/min/m^2 and 536 mL/min/m^2 and 555 mL/min/m^2 and 1,097 mL/min/m^2 and 589 mL/min/m^2 and 617 mL/min/m^2 and 477 mL/min/m^2 and 462 mL/min/m^2
t1/2 Post [7, 10]: 23 h and 51 h and 21 h and 43 h and 36 h and 58 h
Clearance Post, median and range [7, 11]: 546 mL/min/m^2 and 462-1,097 mL/min/m^2
t1/2 Post, median and range [7, 11]: 21 to 58 h
AUC0-∞ Pre ([7]; vinorelbine alone (pre), i.v. bolus 20 or 22.5 mg/m^2, individual patients): 844 ng·h/mL and 635 ng·h/mL and 511 ng·h/mL and 838 ng·h/mL and 603 ng·h/mL and 758 ng·h/mL and 756 ng·h/mL
Clearance Pre [7, 12]: 600 mL/min/m^2 and 444 mL/min/m^2 and 591 mL/min/m^2 and 652 mL/min/m^2 and 398 mL/min/m^2 and 553 mL/min/m^2 and 495 mL/min/m^2 and 496 mL/min/m^2
t1/2 Pre [7, 12]: 22 h and 19 h and 28 h and 48 h and 21 h and 37 h and 36 h
AUC0-∞ Pre, median and range [7, 13]: 511 to 844 ng·h/mL
Clearance Pre, median and range [7, 13]: 524 mL/min/m^2 and 398-652 mL/min/m^2
t1/2 Pre, median and range [7, 13]: 18 to 48 h

SMILES: O[C@@H](COc1cccc2ncccc12)CN1CCN([C@@H]2c3ccccc3[C@@H]3[C@H](c4ccccc42)C3(F)F)CC1 [zosuquidar]
effect of zosuquidar on vinorelbine clearance ([8]; phase I study): may inhibit vinorelbine clearance to a modest degree
